The subject of experiment [1] is HeLa. Nature of the experiment: Cytotoxicity against human HeLa Cells. The format is functional, cell-based.
The subject of experiment [2] is HepG2. Nature of the experiment: Cytotoxicity against human HepG2 Cells. It counts as functional, cell-based.
Experiment [3] concerns HCT-116. Description: Cytotoxicity against human HCT116 Cells. It counts as functional, cell-based.
Experiment [4] concerns AGS. Description: Cytotoxicity against human AGS Cells. It counts as functional, cell-based.
Experiment [5] relates to MCF7. Description: Cytotoxicity against human MCF7 Cells after 48 hrs by MTS assay. The settings on record: MCF7, 48 h. It counts as functional, cell-based.
Experiment [6] can be described thus: Cytotoxicity against human CCD-1059SK Cells after 48 hrs by MTS assay. It counts as functional.
Experiment [7] relates to HL-60. Description: Cytotoxicity against human HL60 cells. The format is functional, cell-based.
The subject of experiment [8] is HSC-3. Description: Cytotoxicity against human HSC3 cells. It counts as functional, cell-based.
Experiment [9] has as its system HSC-2. Description: Cytotoxicity against human HSC2 cells. The format is functional, cell-based.
Experiment [10] has as its system HSC-4. Nature of the experiment: Cytotoxicity against human HSC4 cells. The format is functional, cell-based.
In experiment [11] the test system is SK-OV-3. Description: Cytotoxicity against human SKOV3 Cells after 48 hrs by Cell Titer Blue assay. The settings on record: SK-OV-3, 48 h. The format is functional, cell-based.
In experiment [12] the test system is MCF7. Nature of the experiment: Induction of apoptosis in human MCF7 cells. It counts as functional, cell-based.
The test system of experiment [13] is HT-29. Nature of the experiment: Cytotoxicity against human HT-29 cells by MTT assay. The format is functional, cell-based.
Experiment [14] deals with PC-3. Description: Cytotoxicity against human PC3 cells by MTT assay. It counts as functional, cell-based.
Experiment [15] deals with PANC-1. Description: Cytotoxicity against human PANC1 cells by MTT assay. The format is functional, cell-based.
Experiment [16] has as its system A549. Description: Cytotoxicity against human A549 Cells by MTT assay. It counts as functional, cell-based.
For experiment [17], the system named is MIA PaCa-2. Nature of the experiment: Cytotoxicity against human MIAPaCa2 cells by MTT assay. The format is functional, cell-based.
The test system of experiment [18] is NCI-H460. Nature of the experiment: Cytotoxicity against human H460 cells by MTT assay. The format is functional, cell-based.
The subject of experiment [19] is MCF7. Description: Cytotoxicity against human MCF7 cells by MTT assay. It counts as functional, cell-based.
The test system of experiment [20] is EA.hy 926. Description: Cytotoxicity against human EAhy926 Cells after 72 hrs by MTT assay. It counts as functional, cell-based. The settings on record: EA.hy 926, 72 h.
In experiment [21] the test system is HT-29. Nature of the experiment: Cytotoxicity against human HT-29 Cells after 72 hrs by MTT assay. It counts as functional, cell-based. The settings on record: HT-29, 72 h.
For experiment [22], the system named is CHO-K1. Description: Cytotoxicity against […] Cells after 72 hrs by MTT assay. It counts as functional, cell-based. The settings on record: Cricetulus griseus, CHO-K1, 72 h.
In experiment [23] the test system is Caco-2. Description: Cytotoxicity against human Caco2 Cells after 72 hrs by MTT assay. The format is functional, cell-based. The settings on record: Caco-2, 72 h.
Experiment [24] concerns HepG2. Description: Cytotoxicity against human HepG2 Cells after 72 hrs by MTT assay. The settings on record: HepG2, 72 h. It counts as functional, cell-based.
Experiment [25] relates to MDA-MB-231. Description: Cytotoxicity against human MDA-MB-231 cells. It counts as functional, cell-based.
The test system of experiment [26] is MCF7. Description: Cytotoxicity against human MCF7 cells. It counts as functional, cell-based.
In experiment [27] the test system is HeLa. Nature of the experiment: Anticancer activity against human HeLa cells. The format is functional, cell-based.
Experiment [28] in a line: Anticancer activity against human LX2 cells after 72 hrs by MTT assay. The format is functional, cell-based. The settings on record: LX-2, 72 h.
The subject of experiment [29] is MDA-MB-231. Nature of the experiment: Anticancer activity against human MDA-MB-231 cells after 72 hrs by MTT assay. The settings on record: MDA-MB-231, 72 h. The format is functional, cell-based.
The subject of experiment [30] is SMMC-7721. Nature of the experiment: Anticancer activity against human SMMC7721 cells after 72 hrs by MTT assay. The settings on record: SMMC-7721, 72 h. The format is functional, cell-based.
The subject of experiment [31] is SW-620. Nature of the experiment: Cytotoxicity against human SW620 Cells. It counts as functional, cell-based.
Experiment [32] concerns PC-3. Description: Anticancer activity against human PC3 cells. It counts as functional, cell-based.
Experiment [33] concerns DU-145. Nature of the experiment: Anticancer activity against human DU145 cells. It counts as functional, cell-based.
In experiment [34] the test system is SGC-7901. Description: Antiproliferative activity against human SGC7901 cells after 24 hrs by MTT assay. It counts as functional, cell-based. The settings on record: SGC-7901, 24 h.
The test system of experiment [35] is BGC-823. Description: Antiproliferative activity against human BGC823 cells after 24 hrs by MTT assay. The following applies: BGC-823, 24 h. The format is functional, cell-based.
The test system of experiment [36] is CT26. Description: Cytotoxicity against mouse CT26 cells. The format is functional, cell-based.
Experiment [37] relates to MGC-803. Description: Antiproliferative activity against human MGC803 cells after 24 hrs by MTT assay. It counts as functional, cell-based. The following applies: MGC-803, 24 h.
Experiment [38] concerns NIH3T3. Nature of the experiment: Cytotoxicity against mouse 3T3 Cells after 48 hrs by MTT assay. The format is functional, cell-based. The following applies: NIH3T3, 48 h.
The subject of experiment [39] is MCF7. Nature of the experiment: Cytotoxicity against human MCF7 Cells after 48 hrs by MTT assay. It counts as functional, cell-based. The settings on record: MCF7, 48 h.
Experiment [40] deals with HepG2. Description: Cytotoxicity against human HepG2 Cells after 48 hrs by MTT assay. It counts as functional, cell-based. The following applies: HepG2, 48 h.
Experiment [41] is described as follows: Cytotoxicity against human LX2 Cells after 48 hrs by MTT assay. It counts as functional. The settings on record: LX-2, 48 h.
The subject of experiment [42] is K562. Description: Cytotoxicity against human K562 Cells after 24 to 48 hrs by MTT assay. The format is functional, cell-based.
Experiment [43] deals with A549. Nature of the experiment: Cytotoxicity against human A549 Cells after 24 to 48 hrs by MTT assay. It counts as functional, cell-based.
The test system of experiment [44] is SW480. Description: Cytotoxicity against human SW480 Cells after 24 to 48 hrs by MTT assay. The format is functional, cell-based.
For experiment [45], the system named is KBM5. Description: Growth inhibition of human KBM5 cells relative to control. The format is functional.
Experiment [46] has as its system HCT-116. Nature of the experiment: Growth inhibition of human HCT116 cells relative to control. It counts as functional.
The test system of experiment [47] is MCF7. Nature of the experiment: Cytotoxicity against human MCF7 Cells after 48 hrs by neutral red dye-based assay. The format is functional, cell-based. The following applies: MCF7, 48 h.
Experiment [48] relates to A549. Description: Cytotoxicity against human A549 Cells after 24 hrs by MTT assay. The format is functional, cell-based. The following applies: A549, 24 h.

Each structure is given as a SMILES string.

On to `COc1cc(/C=C/C(=O)CC(=O)/C=C/c2ccc(OC3O[C@H](CO)[C@@H](O)[C@H](O)[C@H]3O)c(OC)c2)ccc1O` (stereo partly drawn), for which the IC50 worked out at 12.5 µM in [1], 18.6 µM in experiment [2], 5.4 µM in experiment [3] and 5.86 µM in [4].
As for `COc1ccc(/C=N/NC(=O)/C=C/c2ccc(O)c(OC)c2)cc1`, the IC50 in experiment [5] amounted to 40.5 µM; in experiment [6] it was 158 µM.
As for `CN1CCC(Cc2ccc(/C=C/C(=O)/C=C/c3ccc(CN4CCN(C)CC4)c(O)c3)cc2O)CC1`, the IC50 in [7] came out at 1.8 µM; in [8], 3 µM; in [9], 3.9 µM; in experiment [10] it was 3 µM.
For the compound `COc1ccc(/C=C/C(=O)/C=C(O)/C=C/c2ccc(OC)c(O)c2)cc1O`, in experiment [11], 5.58 µM corresponded to half-maximal inhibition (IC50).
`COc1cc(/C=C/C(=O)C(=CC2CCN(C(=O)OC(C)(C)C)CC2)C(=O)/C=C/c2ccc(O)c(OC)c2)ccc1O` gave an IC50 in [12] of 1.5 µM.
On to `CCOC(OCC)c1ccc(CC2CN(C)CC(Cc3ccc(C(OCC)OCC)cc3)C2=NO)cc1` (stereo not drawn), for which the IC50 was determined as 0.4 µM in [13]; 0.2 µM in [14]; 0.4 µM in experiment [15]; 0.3 µM in experiment [16]; 0.4 µM in [17]; 0.2 µM in experiment [18]. The same compound returned an IC50 in [19] of 0.2 µM.
For `O=C(/C=C(O)/C=C/c1ccc[nH]1)/C=C/c1ccc[nH]1`, the IC50 in [20] is 8.3 µM; in experiment [21] it was 8.9 µM; in [22], 6.9 µM; in experiment [23], 7.5 µM; in [24] it was 8.2 µM.
Take `COc1ccc(OC)c(/C=C/C(=O)/C=C/c2cc(OC)ccc2OC)c1`: the IC50 in experiment [1] came out at 14 µM; in [25], 1.52 µM; in experiment [26] it was 3.02 µM.
The compound `O=C(/C=C(O)/C=C/c1ccc(OCC(=O)NCC(=O)O)cc1)/C=C/c1ccc(OCC(=O)NCC(=O)O)cc1` had an IC50 in experiment [27] of 0.5 µM.
For `O=C(/C=C(O)/C=C/c1c[nH]c2ccccc12)/C=C/c1c[nH]c2ccccc12`, the IC50 amounted to 11.7 µM in experiment [20]; 11.5 µM in experiment [21]; 7.9 µM in [22]; 3.3 µM in experiment [23]; 10 µM in experiment [24].
`COc1cc(/C=C/C(=O)CC(=O)/C=C/c2ccc(OC(=O)C(N)CC[Se]C)c(OC)c2)ccc1O` (stereo not drawn): the IC50 in [28] stood at 0.62 µM; in experiment [29] it was 0.52 µM; in experiment [24], 0.31 µM; in experiment [30] it was 0.18 µM.
Regarding `COc1cc(/C=C/C(=O)/C=C/c2ccccc2[N+](=O)[O-])ccc1O`, the IC50 in experiment [31] came out at 2.8 µM; in experiment [32], 3.5 µM; in [33] it was 3.7 µM; in experiment [34] it was 4.3 µM; in [3], 2.2 µM; in experiment [35] it was 3.3 µM. Further, the IC50 amounted to 1.6 µM in experiment [36] and 2.7 µM in experiment [37].
Consider `COc1cc(/C=C/C(=O)N/N=C/c2ccc(O)c(OC)c2)ccc1O`, for which the IC50 in experiment [5] worked out at 43 µM; in experiment [6], 74.6 µM.
Consider `COc1ccc(/C=C/C(=O)Oc2ccc(/C=C/C(=O)CC(=O)/C=C/c3ccc(OC(=O)/C=C/c4ccc(OC)c(O)c4)c(OC)c3)cc2OC)cc1O`, for which the IC50 in experiment [38] amounted to 0.79 µM; in experiment [39], 0.51 µM; in experiment [40] it was 0.58 µM; in experiment [41], 0.63 µM.
Regarding `O=C(/C=C/c1c[nH]c2ccccc12)CC(=O)/C=C/c1c[nH]c2ccccc12`, the IC50 in [42] was in the range of 32 to 34 µM; in [43], 25 to 27 µM; in experiment [44], 7 to 9 µM.
For `COc1cc(/C=C/C(=O)/C=C/c2ccc(OCC(=O)Nc3ccccc3)c(OC)c2)ccc1OCC(=O)Nc1ccccc1`, the “growth inhibition (GI)” value in experiment [45] is on record as 86.76%; in [46] it was 60.13%.
In [47], `COc1cc(/C=C/C2=NN(c3nc(/N=C4\CC[C@H]5[C@@H]6CC[C@H]7C[C@@H](OC(C)=O)CC[C@]7(C)[C@H]6CC[C@]45C)cc(=O)[nH]3)C(/C=C/c3ccc(O)c(OC)c3)C2)ccc1O` (stereo partly drawn) displayed an IC50 of 18 µM.
In experiment [48], `O=C(/C=C/c1ccccc1C(F)(F)F)/C=C/c1ccccc1C(F)(F)F` came in with an IC50 of 3.1 µM.

(Values after ChEMBL document CHEMBL4364241, “Developments in the anticancer activity of structurally modified curcumin: An up-to-date review” (Eur J Med Chem, 2019).)
